Reference: ChEMBL document CHEMBL2073761, “Celastraceae sesquiterpenes as a new class of modulators that bind specifically to human P-glycoprotein and reverse cellular multidrug resistance” (Cancer Res, 2004)

Molecular target: ATP-dependent translocase ABCB1 (Homo sapiens, UniProt P08183)
Experiment: TP_TRANSPORTER: efflux of Tetramethylrosamine in membrane vesicles from reconstituted PMPC proteoliposomes containing P-glycoprotein
Type: functional, cell membranes, Membrane vesicle from reconstituted proteoliposome

Sequence of ATP-dependent translocase ABCB1 (P08183 whole entry): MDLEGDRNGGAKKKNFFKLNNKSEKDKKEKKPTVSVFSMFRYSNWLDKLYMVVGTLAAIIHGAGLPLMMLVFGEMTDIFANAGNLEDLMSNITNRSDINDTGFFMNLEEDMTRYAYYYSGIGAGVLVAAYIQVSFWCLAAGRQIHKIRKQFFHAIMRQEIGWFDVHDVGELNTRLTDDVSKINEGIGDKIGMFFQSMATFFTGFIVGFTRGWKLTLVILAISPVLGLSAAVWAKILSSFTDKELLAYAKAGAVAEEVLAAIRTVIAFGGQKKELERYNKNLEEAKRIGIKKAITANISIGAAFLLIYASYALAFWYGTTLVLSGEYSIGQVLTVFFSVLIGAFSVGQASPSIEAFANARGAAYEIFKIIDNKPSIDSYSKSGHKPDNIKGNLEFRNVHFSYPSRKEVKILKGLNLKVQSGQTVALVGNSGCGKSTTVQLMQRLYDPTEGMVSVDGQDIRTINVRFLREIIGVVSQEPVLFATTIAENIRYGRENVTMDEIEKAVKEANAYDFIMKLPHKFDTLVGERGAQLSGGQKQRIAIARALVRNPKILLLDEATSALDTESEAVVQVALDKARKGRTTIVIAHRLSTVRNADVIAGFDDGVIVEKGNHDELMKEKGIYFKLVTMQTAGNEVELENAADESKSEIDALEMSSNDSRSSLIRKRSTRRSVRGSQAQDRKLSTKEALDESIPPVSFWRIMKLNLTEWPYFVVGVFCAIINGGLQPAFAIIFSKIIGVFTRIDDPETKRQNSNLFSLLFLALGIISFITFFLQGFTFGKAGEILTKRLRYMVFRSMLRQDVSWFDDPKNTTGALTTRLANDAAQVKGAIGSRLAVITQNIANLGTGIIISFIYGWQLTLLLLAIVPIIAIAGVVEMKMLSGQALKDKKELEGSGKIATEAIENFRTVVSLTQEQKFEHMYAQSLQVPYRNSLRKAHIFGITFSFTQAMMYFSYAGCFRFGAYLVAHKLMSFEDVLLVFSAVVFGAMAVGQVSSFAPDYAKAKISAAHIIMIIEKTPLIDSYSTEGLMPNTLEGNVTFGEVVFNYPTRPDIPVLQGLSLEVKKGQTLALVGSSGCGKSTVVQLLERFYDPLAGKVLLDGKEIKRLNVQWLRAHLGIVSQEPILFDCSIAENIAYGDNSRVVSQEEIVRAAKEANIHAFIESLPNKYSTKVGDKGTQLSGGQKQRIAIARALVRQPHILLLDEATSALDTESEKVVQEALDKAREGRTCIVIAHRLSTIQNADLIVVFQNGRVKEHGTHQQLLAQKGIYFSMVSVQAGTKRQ

## CN(C)c1ccc2c(-c3ccc(CCl)cc3)c3ccc(=[N+](C)C)cc-3oc2c1.[Br-] [TETRAMETHYLROSAMINE]
  Activity: inhibitor [+]
